# Measurements from US7700601B2, “Substituted indazoles of formula 1.0 that are kinase inhibitors” (Schering Corporation, priority 2006, dated 2010).
# Values joined by “and” are separate entries in the source; they are usually repeats but may differ in a detail not shown here. Identical values can stand only once.
# Target: T1, Akt1 (Homo sapiens, UniProt P31749)
# T1 construct: (His)6 (N); made in house; host or cells: Sf9 insect cells (baculovirus, pBlueBacHis2B)
# Experiment: Akt1 kinase assay (33P phosphorylation of biotinylated Gsk3-derived peptide, streptavidin Flash plates)
# Type: biochemical
# Settings: Table 2; active recombinant Akt1
# Excerpt: The assay described below measures the phosphorylation of a biotinylated peptide by active recombinant Akt1 and other kinase isoforms. The biotinylated peptide contains a consensus sequence derived from Akt substrate Gsk3 (Glycogen synthase kinase 3). The ^33P-labeled peptide substrate was captured by streptavidin-coated Flash plates.
# Active recombinant Akt1 was expressed in Sf9 insect cells and purified as described by Kumar et al., Biochim. Biophys. Acta. Jun. 15, 2001, 1526(3), 257-268. Biotinylated peptide of the sequence Bio-ahx-RPRAASF was purchased from Syn Pep (Dublin, Calif., USA).
# Human Akt1 cDNA was amplified from a marathon-ready human lung cDNA library (Clonetech) using nested oligo primers as described below. The first round of amplification was carried out using the following primers; Akt1F1 ([…]) (SEQ ID NO: 1 and Akt1R1 (TCCATC […]) (SEQ ID NO: 2) and for the second round amplification, the primers of the following sequence were used; Akt1F2 (GGATCCTCGG […]) (SEQ ID NO: 3) and AKT1R2 (GGTACCATCGTC […]) (SEQ ID NO: 4). The PCR product was subcloned into pCRScript plasmid as a BamHI/KpnI fragment and the sequence of the cDNA was confirmed by DNA sequencing. This plasmid was used as a template for reamplification of Akt1 using appropriate primers for subcloning into pBlueBaHis2B into BamH1/EcoRI sites to generate an in frame fusion to (His)6 tag and an anti-Xpress antibody epitope tag at the N-terminus. This construct was sequenced to verify the junction sequences and used for generating a recombinant baculovirus. Growth of the recombinant virus, amplification and determination of viral titer were carried out according to the instructions from the manufacturer (InVitrogen, Calif.).
# Viral stocks were used to infect large scale Sf9 cells at a multiplicity of infection (MOI) of 2.5. Cells were maintained at 27° C. for 60 h and okadaic acid was added to the cultures to a concentration of 50 nM. Cells were harvested 4 h hours later by centrifugation at 1200 rpm for 30 min followed by freezing at −80° C. until further use. All purification steps were carried out at 4° C. Whole cell pellets were suspended in buffer A (20 mM sodium phosphate buffer pH 7.8, 500 mM NaCl, 1 mM sodium vanadate, 5 mM sodium fluoride, 40 mM β-glycerophosphate, 10 mM imidazole and protease inhibitor cocktail) and lysed using a microfluidizer. The cell extract was centrifuged at 16,000×g for 10 min to remove the debris and directly loaded onto Ni-NTA Superflow resin using a FPLC pump operated at 1 ml/min. The column was washed once with buffer A, once with wash buffer B (20 mM sodium phosphate pH 6.0, 1 mM sodium vanadate, 5 mM sodium fluoride and protease cocktail) and once with wash buffer B containing 0.05% Tween-20 followed by washing with buffer A until OD260 returned to basal level. Proteins were eluted with buffer A containing 200 mM imidazole. Fractions were analyzed by electrophoresis on 10% denaturing polyacrylamide gels and fractions containing 85% pure protein band at 60 KDa were pooled and dialyzed against buffer C (20 mM Tris-HCl pH 7.5, 0.5 mM EDTA, 2 mM DTT, 145 mM NaCl, 0.1 mM sodium vanadate, 5 mM sodium fluoride, 10 mM β-glycerophosphate and 20% glycerol). Purified protein was stored as aliquots at −80° C. Protein concentrations were determined using BCA protein assay reagent A (Catalog #23228). To examine the identity of the proteins, 2 μg of purified protein was electrophoresed on SDS-polyacrylamide gels and stained with coomassie blue dye or transferred to nitrocellulose membrane and probed with anti-Akt and anti-phospho-specific Akt antibodies using enhanced chemiluminescence (ECL) reagent according to the protocol described by the manufacturer (Amersham).
# The kinase assay was performed in 96 well plates at room temperature. Assay solutions and plates were preincubated at room temperature for 5 min. […]
# T1 sequence (P31749 whole entry): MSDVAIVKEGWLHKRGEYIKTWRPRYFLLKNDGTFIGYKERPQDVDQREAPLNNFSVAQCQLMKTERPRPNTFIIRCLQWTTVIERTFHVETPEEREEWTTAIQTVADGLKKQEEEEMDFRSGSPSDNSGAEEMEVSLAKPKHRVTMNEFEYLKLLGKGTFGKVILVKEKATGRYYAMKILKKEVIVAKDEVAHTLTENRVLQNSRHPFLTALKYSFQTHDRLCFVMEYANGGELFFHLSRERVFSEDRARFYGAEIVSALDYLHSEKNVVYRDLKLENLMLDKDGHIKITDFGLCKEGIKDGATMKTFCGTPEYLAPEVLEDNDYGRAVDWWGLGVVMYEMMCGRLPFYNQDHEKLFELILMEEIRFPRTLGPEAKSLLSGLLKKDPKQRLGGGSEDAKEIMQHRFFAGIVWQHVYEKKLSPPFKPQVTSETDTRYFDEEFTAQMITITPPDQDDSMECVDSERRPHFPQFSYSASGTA
row,Structure (SMILES),IC50 [nM]
1,Cc1n[nH]c2ccc(-c3cnc(NCc4ccccc4)c(N4CCN[C@@H](Cc5ccccc5)C4)n3)cc12 [drawing 104],76
2,Cc1n[nH]c2ccc(-c3cnc(N)c(N4CCN[C@@H](Cc5ccccc5)C4)n3)cc12 [drawing 106],55
3,Cc1n[nH]c2ccc(-c3cnc(NCc4ccccc4)c(NCCN)n3)cc12,79
4,"Cc1n[nH]c2ccc(-c3cncc(N4CCN[C@@H](Cc5ccccc5)C4)n3)cc12 [Example 2, 2-[(S)-3-benzylpiperazinyl]-6-[3-methyl-1H-indazol-5-yl]pyrazine]",1
5,Cc1n[nH]c2ccc(-c3cnc(N)c(NCCN)n3)cc12,74

# Now from value to molecule:
row,IC50 [nM],Structure (SMILES)
1,148,COc1cccc(CNc2ncc(-c3ccc4[nH]nc(C)c4c3)nc2N2CCNCC2)c1 [drawing 109]
2,46,Cc1n[nH]c2ccc(-c3cnc(NCc4ccccc4)c(N4CCNCC4)n3)cc12 [drawing 101]
3,129,Cc1n[nH]c2ccc(-c3cnc(NCc4ccccc4Cl)c(N4CCNCC4)n3)cc12 [drawing 105]
4,44,Cc1n[nH]c2ccc(-c3cnc(NCc4cccc(F)c4)c(N4CCNCC4)n3)cc12 [drawing 103]
5,140,Cc1ccccc1CNc1ncc(-c2ccc3[nH]nc(C)c3c2)nc1N1CCNCC1 [drawing 108]

# Same assay, conditions: active recombinant Akt1, 2 μM cold ATP, 2 hr, room temperature
row,Structure (SMILES),IC50
1,Cc1n[nH]c2ccc(-c3cnc(N(C)Cc4ccccc4)c(N4CCNCC4)n3)cc12 [Example 27],0.98 to 240 nM
2,Cc1n[nH]c2ccc(-c3cnc(NCc4ccc(F)cc4)c(N4CCNCC4)n3)cc12 [Example 43],0.98 to 240 nM
3,"Cc1n[nH]c2ccc(-c3cnc(N)c(N4CCN[C@@H](Cc5ccccc5)C4)n3)cc12 [Example 1, 2-amino-3-[(S)-3-benzylpiperazinyl]-5-(3-methyl-1H-indazol-5-yl)pyrazine]",0.98 to 240 nM
4,Cc1n[nH]c2ccc(-c3cnc(NCc4ccccc4)c(N4CCN[C@@H](Cc5ccccc5)C4)n3)cc12 [Example 5],0.98 to 240 nM
5,Cc1n[nH]c2ccc(-c3cnc(N)c(N4CCNCC4)n3)cc12 [Example 12],0.98 to 240 nM
6,Cc1n[nH]c2ccc(-c3cnc(NCc4c(F)cccc4Cl)c(N4CCNCC4)n3)cc12 [Example 50],0.98 to 240 nM
7,"Cc1n[nH]c2ccc(-c3cncc(N4CCN[C@@H](Cc5ccccc5)C4)n3)cc12 [Example 2, 2-[(S)-3-benzylpiperazinyl]-6-[3-methyl-1H-indazol-5-yl]pyrazine]",0.98 to 240 nM and 0.98 to 46 nM and 0.98 nM
8,Cc1n[nH]c2ccc(-c3cnc(N)c(N4CCN[C@H](c5ccccc5)C4)n3)cc12 [Example 8],0.98 to 240 nM

# Results, then the molecule that gave them:
row,IC50,Structure (SMILES)
1,0.98 to 240 nM,Cc1ccccc1CNc1ncc(-c2ccc3[nH]nc(C)c3c2)nc1N1CCNCC1 [Example 38]
2,0.98 to 240 nM,Cc1n[nH]c2ccc(-c3cnc(NCc4ccccc4Cl)c(N4CCNCC4)n3)cc12 [Example 31]
3,0.98 to 240 nM,COc1cccc(CNc2ncc(-c3ccc4[nH]nc(C)c4c3)nc2N2CCNCC2)c1 [Example 34]
4,0.98 to 240 nM,Cc1n[nH]c2ccc(-c3cnc(NCc4ccc(Cl)cc4)c(N4CCNCC4)n3)cc12 [Example 29]
5,0.98 to 240 nM,COc1ccccc1CNc1ncc(-c2ccc3[nH]nc(C)c3c2)nc1N1CCNCC1 [Example 35]
6,0.98 to 240 nM and 0.98 to 46 nM,Cc1n[nH]c2ccc(-c3cnc(NCc4ccccc4)c(N4CCNCC4)n3)cc12 [Example 18]
7,0.98 to 240 nM and 0.98 to 46 nM,Cc1n[nH]c2ccc(-c3cnc(NCc4cccc(F)c4)c(N4CCNCC4)n3)cc12 [Example 42]
8,0.98 to 240 nM,Cc1n[nH]c2ccc(-c3cnc(NCc4ccccc4F)c(N4CCNCC4)n3)cc12 [Example 41]
9,0.98 to 240 nM,Cc1n[nH]c2ccc(-c3cnc(NCc4cccc(Cl)c4)c(N4CCNCC4)n3)cc12 [Example 30]
